Assay results taken from paper PMC3546862, “Assessing the utility of an anti-malarial pharmacokinetic-pharmacodynamic model for aiding drug clinical development” (Malaria Journal, 2012).
Values after ≈ are worked out from the molar mass of the structure shown. Like-named read-outs stand apart in the source and are kept apart here. Marks after values point to notes of the source that are not given here.

Key:
0.5% Albumax in RPMI = 0.5% Albumax in RPMI (Bos taurus, UniProt P02769); assay: Binding to in vitro testing media by ultracentrifugation; assay type: in vitro ADME; settings: ultracentrifugation 4.2 hours at 37°C
Experimental: (§1) Estimates of drug binding to the in vitro testing media (i.e. 0.5% Albumax in RPMI) and human plasma were determined using ultracentrifugation. Briefly, blank Albumax media and plasma were each spiked with compound and divided into six aliquots; three aliquots were subjected to ultracentrifugation (Beckman Optima XL-100K Ultracentrifuge, Rotor type 42.2 Ti; 223,000 x g) for 4.2 hours at 37°C to pellet the proteins whereas the remaining three aliquots served as controls and were incubated at 37°C for the same time period but without centrifugation. Controls were also stored at −20°C to confirm sample stability over the centrifugation period. Aliquots of the supernatants from the ultracentrifuged samples were first diluted 1:1 in acetonitrile, assayed by LC-MS and the responses compared to a calibration curve prepared in 50% aqueous acetonitrile to determine the unbound (i.e. free) concentration. Control concentrations in each matrix were determined using LC-MS by first precipitating the proteins with acetonitrile (3:1 acetonitrile: matrix) and then comparing the responses to a calibration curve from a blank matrix prepared using the same protein precipitation procedure. The free fraction in each matrix was then determined from the ratio of the average unbound (e.g. free) concentration to the average total concentration in each matrix.

P. falciparum [1] = tested on: P. falciparum; parameters: method as in PMID 2648881; settings: assumed; cited from earlier work
[2] = cited from earlier work
human plasma protein = assay: Human plasma protein binding by ultracentrifugation; assay type: in vitro ADME; settings: ultracentrifugation 4.2 hours at 37°C
Experimental: as §1

P. falciparum [3] = assay: Parasite reduction ratio from published clinical data and kmax calculated from it; assay type: in vivo; settings: kmax = 1/KZ x ln PRR + 1/48 x ln PMF, PMF = 10
Text: (§2) The maximal killing rate (kmax) of the drug was assumed to follow a triangular distribution. The middle values were taken from published clinical data. Piperaquine was the only drug with no clinical studies of it administered as a monotherapy and the mode was set to a value equal to that derived from in vitro experiments. The minimum and maximum values of the triangular distribution for each anti-malarial correspond to a 50-fold decrease and 50-fold increase in the number of parasites killed every 48 hours.

[4] = Whole blood to plasma partitioning ratio (B/P); assay type: in vitro ADME; settings: human, whole blood and plasma; 37°C, 2 min incubation
Experimental: The whole blood to plasma partitioning ratio (B/P) was determined by spiking aliquots of whole blood or plasma maintained at 37°C with compound, incubating for 2 min, and then centrifuging the whole blood sample to obtain the plasma fraction. Both the plasma fraction of whole blood and the plasma control were assayed for compound by LC-MS as described above. The blood to plasma ratio was calculated from the ratio of the concentration in the plasma control (used as a surrogate for the total whole blood concentration since whole blood assays were not available for each compound) to that in the plasma fraction of whole blood. The two-minute time point was used to avoid confounding issues due to potential blood instability; rapid equilibration between plasma and erythrocytes was assumed.

[5] = tested on: P. falciparum strain NF54; assay: [3H]-hypoxanthine incorporation assay, asynchronous intraerythrocytic forms; assay type: cell-based; settings: for IC50: Plasmodium falciparum
Experimental: (§3) The fresh P. falciparum parasite isolates were obtained from blood samples of 487 patients attending outpatient clinics in Papua, Indonesia between 2004 and 2010 [26]. The in vitro drug susceptibility was determined using the World Health Organization guidelines for schizont maturation tests. The in vitro data for artemether were measured at the Swiss Tropical and Public Health Institute (Switzerland; Basel) against asynchronous intraerythrocytic forms of the P. falciparum strain NF54 (obtained from MR4) using the [3H]-hypoxanthine incorporation assay.

[6] = tested on: fresh P. falciparum parasite isolates; assay: In vitro drug susceptibility, schizont maturation test (WHO guidelines) on fresh patient isolates; assay type: cell-based; settings: for IC50: Plasmodium falciparum; for γ, mean on loge scale of log-normal distribution lnN(μ ln, σ ln): first parameter of lnN; for γ (Slope of concentration-effect curve): in vitro
Experimental: as §3

P. falciparum [7] = settings: every 48 hours; published clinical data; cited from earlier work
P. falciparum [8] = assay: Parasite reduction ratio from in vitro killing rate experiments and kmax calculated from it; assay type: cell-based; settings: kmax = 1/KZ x ln PRR + 1/48 x ln PMF, PMF = 10; PRR from in vitro experiments
Text: as §2

ring stage parasites = tested on: ring stage parasites; parameters: method as in PMID 21173254; settings: patients with delayed PCTs; cited from earlier work
[9] = geometric mean, adjusted to whole blood, lower limit a of EC50 distribution, read-out: IC50 (adjusted) concentration
[10] = geometric mean, not corrected for binding, isolates of 487 patients, Papua, Indonesia, read-out: IC50 measured concentration
[11] = not corrected for binding, from nM and molecular weight, read-out: IC50 concentration

Sequence of 0.5% Albumax in RPMI (P02769 25-607): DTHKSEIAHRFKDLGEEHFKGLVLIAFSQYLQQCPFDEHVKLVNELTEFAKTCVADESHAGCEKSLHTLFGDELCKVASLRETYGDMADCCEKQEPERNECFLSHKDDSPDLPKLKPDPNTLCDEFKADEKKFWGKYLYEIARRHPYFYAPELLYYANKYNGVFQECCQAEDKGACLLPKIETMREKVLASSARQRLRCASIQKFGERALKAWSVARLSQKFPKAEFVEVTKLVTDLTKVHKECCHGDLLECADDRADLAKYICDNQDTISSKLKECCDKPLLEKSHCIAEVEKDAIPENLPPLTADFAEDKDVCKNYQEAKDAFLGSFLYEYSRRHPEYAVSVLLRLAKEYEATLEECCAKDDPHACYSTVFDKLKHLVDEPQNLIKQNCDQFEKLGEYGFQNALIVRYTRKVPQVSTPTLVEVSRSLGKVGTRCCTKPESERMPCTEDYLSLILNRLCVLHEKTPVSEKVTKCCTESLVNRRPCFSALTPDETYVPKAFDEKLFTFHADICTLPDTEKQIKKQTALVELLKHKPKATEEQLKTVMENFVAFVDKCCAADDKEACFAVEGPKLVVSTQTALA

| Binding to media of in vitro experiment (0.5% Albumax) (0.5% Albumax in RPMI) [% bound] | Human plasma protein binding (human plasma protein) [% bound] | blood plasma ratio at 2 min [4] | IC50 [6, 9] [ng/mL] | IC50 [6, 10] [nM] | IC50 [6, 11] [ng/mL] | SMILES | KZ (length of the killing zone) (P. falciparum [1]) [h] | CL/F (clearance) [2] [L/h] | V/F (volume of distribution) [2] | ka (absorption rate constant) [2] [h⁻¹] | kmax, mode c of triangular distribution TRI(a, b, c) (P. falciparum [3]) | γ, mean on loge scale of log-normal distribution lnN(μ ln, σ ln) [6] | γ (Slope of concentration-effect curve) [6] | further results |
| --- | --- | --- | --- | --- | --- | --- | --- | --- | --- | --- | --- | --- | --- | --- |
| 82.8 | 91.7 | 0.8 | – | – | – | CO[C@H]1O[C@@H]2O[C@@]3(C)CC[C@H]4[C@H](C)CC[C@@H]([C@H]1C)[C@@]24OO3 [ART, artemether] | 38 | 180 | 217 L | 0.37 | TRI(0.12, 0.33, 0.22)^c /h | – | – | IC50 ([5]; adjusted to whole blood, lower limit a of EC50 distribution, read-out: IC50 (adjusted) concentration): 4.38 ng/mL (≈ 0.0147 µM); IC50 ([5]; not corrected for binding, read-out: IC50 concentration): 2.64 ng/mL (≈ 0.00885 µM); γ, mean on loge scale of log-normal distribution lnN(μ ln, σ ln) ([5]; first parameter of lnN): lnN(1.53, 0.31); γ (Slope of concentration-effect curve) ([5]; in vitro): 4.61 |
| 99.6 | 98.7 | 0.8 | 1.75 | 13.4 | 7.1 | CCCCN(CCCC)CC(O)c1cc(Cl)cc2c1-c1ccc(Cl)cc1/C2=C/c1ccc(Cl)cc1 (stereo not drawn) [LF, lumefantrine] | 22 | 7.04 | – | 0.17 | TRI(0.18, 0.54, 0.36)^c /h | lnN (0.81, 0.58) | 2.24 | Q/F (inter-compartmental clearance) [2]: 4.08 L/h; Vc/F (volume of central compartment) [2]: 103 L; Vp/F (volume of peripheral compartment) [2]: 272 L; PRR (parasite reduction ratio) (P. falciparum [7]): 10^3 |
| 98.1 | 98.6 | 0.9 | 11.6 | 17.7 | 9.46 | Clc1ccc2c(N3CCN(CCCN4CCN(c5ccnc6cc(Cl)ccc56)CC4)CC3)ccnc2c1 [PQ, piperaquine] | 24 | – | – | – | – | – | 3.48 | CL/F (clearance) ([2]; 48kg individual): 66 L/h; Q/F (inter-compartmental clearance) ([2]; 48kg individual): 131 L/h; Vc/F (volume of central compartment) ([2]; 48kg individual): 8660 L; Vp/F (volume of peripheral compartment) ([2]; 48kg individual): 24000 L; ka (absorption rate constant) ([2]; 48kg individual): 0.717 h⁻¹; kmax, mode c of triangular distribution TRI(a, b, c) (P. falciparum [8]): TRI(0.33, 0.65, 0.49)^c /h |

Second part, the compound before the results:

| SMILES | Binding to media of in vitro experiment (0.5% Albumax) (0.5% Albumax in RPMI) [% bound] | Human plasma protein binding (human plasma protein) [% bound] | blood plasma ratio at 2 min [4] | IC50 [6, 9] [ng/mL] | IC50 [6, 10] [nM] | IC50 [6, 11] [ng/mL] | KZ (length of the killing zone) (P. falciparum [1]) [h] | CL/F (clearance) [2] [L/h] | V/F (volume of distribution) [2] | ka (absorption rate constant) [2] [h⁻¹] | kmax, mode c of triangular distribution TRI(a, b, c) (P. falciparum [3]) | γ, mean on loge scale of log-normal distribution lnN(μ ln, σ ln) [6] | γ (Slope of concentration-effect curve) [6] | further results |
| --- | --- | --- | --- | --- | --- | --- | --- | --- | --- | --- | --- | --- | --- | --- |
| OC(c1cc(C(F)(F)F)nc2c(C(F)(F)F)cccc12)C1CCCCN1 (stereo not drawn) [MQ, mefloquine] | 85 | 95.6 | – | 21 | 9.34 | 3.53 | 22 | – | 10.2^f L/kg | – | TRI(0.11, 0.46, 0.28)^c /h | lnN (0.97, 0.54) | 2.63 | IC50 (adjusted) concentration ([6]; geometric mean, adjusted to whole blood, lower limit a of EC50 distribution): 20.48 ng/mL (≈ 0.0541 µM) |
| C[C@H]1[C@H](OC(=O)CCC(=O)O)O[C@@H]2O[C@@]3(C)CC[C@H]4[C@H](C)CC[C@@H]1[C@@]24OO3 [artesunate] | – | – | – | – | – | – | – | – | – | – | – | – | – | Maximal killing rate for the ring stages, mean (ring stage parasites): 62 % /cycle |
